# From patent publication US12723063B2, “GIPR-agonist compounds” (Eli Lilly and Company, priority 2019, dated 2026)
# *1 amine or outer side, *2 acyl side, *3 side chain or, on linkers, in order; H or OH if unused. Where a SMILES comes first, the peptide text is derived from it. Side-chain parts run from the residue outwards. [ ]: non-standard residue; d: D form. The star is where a group is joined. C20 diacid = O=C(O)CCCCCCCCCCCCCCCCCCC(=O)*; C18 diacid = O=C(O)CCCCCCCCCCCCCCCCC(=O)*; γGlu = O=C(O)[C@H](CCC(=O)[*:2])N[*:1]; αMeY = C[C@](N)(Cc1ccc(O)cc1)C(=O)O; 4Pal = N[C@@H](Cc1ccncc1)C(=O)O; αMeL = CC(C)C[C@](C)(N)C(=O)O; Iva = CC[C@](C)(N)C(=O)O; Orn = NCCC[C@H](N)C(=O)O; AEEA = NCCOCCOCC(=O)O; Aib = CC(C)(N)C(=O)O
# How the values were obtained:
# human GIPR = biological target: T1, human GIPR (Homo sapiens, UniProt P48546); assay: [125I]-GIP binding, SPA with WGA beads, 0.1% bacitracin; conditions: geometric mean, read-out: hGIPR Ki
# T1 construct: expressed in transfected cells; crude membranes
# T1 sequence (P48546 22-466): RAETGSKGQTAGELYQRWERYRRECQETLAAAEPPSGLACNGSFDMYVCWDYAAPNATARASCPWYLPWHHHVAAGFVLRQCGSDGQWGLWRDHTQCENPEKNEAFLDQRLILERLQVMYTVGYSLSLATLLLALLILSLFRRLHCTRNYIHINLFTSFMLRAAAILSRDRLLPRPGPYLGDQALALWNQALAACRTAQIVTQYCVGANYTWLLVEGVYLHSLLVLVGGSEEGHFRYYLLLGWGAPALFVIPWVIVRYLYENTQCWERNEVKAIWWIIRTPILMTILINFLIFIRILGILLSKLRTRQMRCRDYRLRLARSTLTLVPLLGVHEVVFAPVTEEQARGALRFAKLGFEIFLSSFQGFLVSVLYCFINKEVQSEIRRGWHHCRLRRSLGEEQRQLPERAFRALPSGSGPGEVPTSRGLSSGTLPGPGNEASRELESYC
# Method in brief: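 Ki values are geometric means (SEM, n independent days), derived from four-parameter nonlinear regression of IC50. Membranes came from hGIPR-expressing CHO cells.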
# [1] = biological target: T2, human glucose-dependent insulinotropic peptide receptor (GIPR) (Homo sapiens, UniProt P48546); assay: cAMP functional assay (HTRF) in HEK293 cells in presence of 0.1% casein; format: cell-based; conditions: HEK293 cells expressing human GIPR, geometric mean, read-out: hGIPR cAMP Rel EC50 nM (SEM, n)
# T2 construct: expressed in transfected cells; host or cells: HEK293
# T2 sequence (P48546 22-466): T1 sequence (P48546 22-466)
SMILES,Ki (human GIPR) [nM],EC50 [1] [nM]
CC[C@H](C)[C@H](NC(=O)[C@H](CO)NC(=O)[C@H](Cc1ccc(O)cc1)NC(=O)[C@H](CC(=O)O)NC(=O)[C@H](CO)NC(=O)[C@@H](NC(=O)[C@H](Cc1ccccc1)NC(=O)[C@@H](NC(=O)CNC(=O)[C@H](CCC(=O)O)NC(=O)C(C)(C)NC(=O)[C@@H](N)Cc1ccc(O)cc1)[C@@H](C)O)[C@@H](C)CC)C(=O)N[C@@H](C)C(=O)N[C@@H](CC(C)C)C(=O)N[C@@H](CC(=O)O)C(=O)N[C@@H](CCCCN)C(=O)N[C@@H](CCCCNC(=O)COCCOCCNC(=O)COCCOCCNC(=O)CC[C@H](NC(=O)CCCCCCCCCCCCCCCCC(=O)O)C(=O)O)C(=O)N[C@@H](Cc1c[nH]cn1)C(=O)N[C@@H](CCC(N)=O)C(=O)NC(C)(C)C(=O)N[C@@H](CC(=O)O)C(=O)N[C@@H](Cc1ccccc1)C(=O)N[C@H](C(=O)N[C@@H](CCC(=O)O)C(=O)N[C@@H](Cc1ccncc1)C(=O)N[C@@H](CC(C)C)C(=O)N[C@@H](CC(C)C)C(=O)N[C@@H](C)C(=O)NCC(=O)NCC(=O)N1CCC[C@H]1C(=O)N[C@@H](CO)C(=O)N[C@@H](CO)C(=O)NCC(=O)N[C@@H](C)C(=O)N1CCC[C@H]1C(=O)N1CCC[C@H]1C(=O)N1CCC[C@H]1C(=O)N[C@@H](CO)C(N)=O)C(C)C [Example 21] (H-Y[Aib]EGTFISDYSIALDKK([AEEA-AEEA-γGlu-C18 diacid])HQ[Aib]DFVE[4Pal]LLAGGPSSGAPPPS-NH2),1.46,0.291
CC[C@H](C)[C@H](NC(=O)[C@H](CO)NC(=O)[C@H](Cc1ccc(O)cc1)NC(=O)[C@H](CC(=O)O)NC(=O)[C@H](CO)NC(=O)[C@@H](NC(=O)[C@](C)(CC)NC(=O)[C@@H](NC(=O)CNC(=O)[C@H](CCC(=O)O)NC(=O)C(C)(C)NC(=O)[C@@H](N)Cc1ccc(O)cc1)[C@@H](C)O)[C@@H](C)CC)C(=O)N[C@@](C)(CC(C)C)C(=O)N[C@@H](CC(C)C)C(=O)N[C@@H](CC(=O)O)C(=O)N[C@@H](CCCN)C(=O)N[C@@H](CCCCNC(=O)COCCOCCNC(=O)COCCOCCNC(=O)CC[C@H](NC(=O)CCCCCCCCCCCCCCCCCCC(=O)O)C(=O)O)C(=O)N[C@@H](Cc1c[nH]cn1)C(=O)N[C@@H](CCC(N)=O)C(=O)NC(C)(C)C(=O)N[C@@H](CC(=O)O)C(=O)N[C@@H](Cc1ccccc1)C(=O)N[C@H](C(=O)N[C@@H](CCC(=O)O)C(=O)N[C@@H](Cc1ccncc1)C(=O)N[C@@H](CC(C)C)C(=O)N[C@@H](CC(C)C)C(=O)N[C@@H](CCC(=O)O)C(=O)NCC(=O)NCC(=O)N1CCC[C@H]1C(=O)N[C@@H](CO)C(=O)N[C@@H](CO)C(=O)NCC(=O)N[C@@H](C)C(=O)N1CCC[C@H]1C(=O)N1CCC[C@H]1C(=O)N1CCC[C@H]1C(=O)N[C@@H](CO)C(N)=O)C(C)C [Example 76] (H-Y[Aib]EGT[Iva]ISDYSI[αMeL]LD[Orn]K([AEEA-AEEA-γGlu-C20 diacid])HQ[Aib]DFVE[4Pal]LLEGGPSSGAPPPS-NH2),0.0293,0.0154
CC[C@H](C)[C@H](NC(=O)[C@H](CO)NC(=O)[C@H](Cc1ccc(O)cc1)NC(=O)[C@H](CC(=O)O)NC(=O)[C@H](CO)NC(=O)[C@@H](NC(=O)[C@H](Cc1ccccc1)NC(=O)[C@@H](NC(=O)CNC(=O)[C@H](CCC(=O)O)NC(=O)[C@@H](C)NC(=O)[C@@H](N)Cc1ccc(O)cc1)[C@@H](C)O)[C@@H](C)CC)C(=O)N[C@@H](CC(C)C)C(=O)N[C@@H](CC(C)C)C(=O)N[C@@H](CC(=O)O)C(=O)N[C@@H](CCCCN)C(=O)N[C@@H](CCCCNC(=O)COCCOCCNC(=O)COCCOCCNC(=O)CC[C@H](NC(=O)CCCCCCCCCCCCCCCCC(=O)O)C(=O)O)C(=O)N[C@@H](C)C(=O)N[C@@H](CCC(N)=O)C(=O)NC(C)(C)C(=O)N[C@@H](CCC(=O)O)C(=O)N[C@@H](Cc1ccccc1)C(=O)N[C@H](C(=O)N[C@@H](CC(N)=O)C(=O)N[C@@H](Cc1c[nH]c2ccccc12)C(=O)N[C@@H](CC(C)C)C(=O)N[C@@H](CC(C)C)C(=O)N[C@@H](C)C(=O)N[C@@H](CCC(N)=O)C(=O)NCC(=O)N1CCC[C@H]1C(=O)N[C@@H](CO)C(=O)N[C@@H](CO)C(=O)NCC(=O)N[C@@H](C)C(=O)N1CCC[C@H]1C(=O)N1CCC[C@H]1C(=O)N1CCC[C@H]1C(=O)N[C@@H](CO)C(N)=O)C(C)C [Example 20] (H-Y[dA]EGTFISDYSILLDKK([AEEA-AEEA-γGlu-C18 diacid])AQ[Aib]EFVNWLLAQGPSSGAPPPS-NH2),0.0477,0.00933
CC[C@H](C)[C@H](NC(=O)[C@H](Cc1ccccc1)NC(=O)[C@@H](NC(=O)CNC(=O)[C@H](CCC(=O)O)NC(=O)C(C)(C)NC(=O)[C@@H](N)Cc1ccc(O)cc1)[C@@H](C)O)C(=O)N[C@@H](CO)C(=O)N[C@@H](CC(=O)O)C(=O)N[C@@H](Cc1ccc(O)cc1)C(=O)N[C@@H](CO)C(=O)N[C@H](C(=O)N[C@@](C)(CC(C)C)C(=O)N[C@@H](CC(C)C)C(=O)N[C@@H](CC(=O)O)C(=O)N[C@@H](CCCCN)C(=O)N[C@@H](CCCCNC(=O)COCCOCCNC(=O)COCCOCCNC(=O)CC[C@H](NC(=O)CCCCCCCCCCCCCCCCCCC(=O)O)C(=O)O)C(=O)N[C@@H](Cc1c[nH]cn1)C(=O)N[C@@H](CCC(N)=O)C(=O)NC(C)(C)C(=O)N[C@@H](CC(=O)O)C(=O)N[C@@H](Cc1ccccc1)C(=O)N[C@H](C(=O)N[C@@H](CCC(=O)O)C(=O)N[C@@](C)(Cc1ccc(O)cc1)C(=O)N[C@@H](CC(C)C)C(=O)N[C@@H](CC(C)C)C(=O)N[C@@H](CCC(=O)O)C(=O)N[C@@H](C)C(=O)NCC(=O)N1CCC[C@H]1C(=O)N[C@@H](CO)C(=O)N[C@@H](CO)C(=O)NCC(=O)N[C@@H](C)C(=O)N1CCC[C@H]1C(=O)N1CCC[C@H]1C(=O)N1CCC[C@H]1C(=O)N[C@@H](CO)C(N)=O)C(C)C)[C@@H](C)CC [Example 90] (H-Y[Aib]EGTFISDYSI[αMeL]LDKK([AEEA-AEEA-γGlu-C20 diacid])HQ[Aib]DFVE[αMeY]LLEAGPSSGAPPPS-NH2),0.129,0.0272
CC[C@H](C)[C@H](NC(=O)[C@H](CO)NC(=O)[C@H](Cc1ccc(O)cc1)NC(=O)[C@H](CC(=O)O)NC(=O)[C@H](CO)NC(=O)[C@@H](NC(=O)[C@](C)(CC)NC(=O)[C@@H](NC(=O)CNC(=O)[C@H](CCC(=O)O)NC(=O)C(C)(C)NC(=O)[C@@H](N)Cc1ccc(O)cc1)[C@@H](C)O)[C@@H](C)CC)C(=O)N[C@@](C)(CC(C)C)C(=O)N[C@@H](CC(C)C)C(=O)N[C@@H](CC(=O)O)C(=O)N[C@@H](CCCCN)C(=O)N[C@@H](CCCCNC(=O)COCCOCCNC(=O)COCCOCCNC(=O)CC[C@H](NC(=O)CCCCCCCCCCCCCCCCCCC(=O)O)C(=O)O)C(=O)N[C@@H](Cc1c[nH]cn1)C(=O)N[C@@H](CCC(N)=O)C(=O)NC(C)(C)C(=O)N[C@@H](CC(=O)O)C(=O)N[C@@H](Cc1ccccc1)C(=O)N[C@H](C(=O)N[C@@H](CCC(=O)O)C(=O)N[C@@H](Cc1ccncc1)C(=O)N[C@@H](CC(C)C)C(=O)N[C@@H](CC(C)C)C(=O)N[C@@H](CCC(=O)O)C(=O)NCC(=O)NCC(=O)N1CCC[C@H]1C(=O)N[C@@H](CO)C(=O)N[C@@H](CO)C(=O)NCC(=O)N[C@@H](C)C(=O)N1CCC[C@H]1C(=O)N1CCC[C@H]1C(=O)N1CCC[C@H]1C(=O)N[C@@H](CO)C(N)=O)C(C)C [Example 74] (H-Y[Aib]EGT[Iva]ISDYSI[αMeL]LDKK([AEEA-AEEA-γGlu-C20 diacid])HQ[Aib]DFVE[4Pal]LLEGGPSSGAPPPS-NH2),0.0287,0.0167
